Numbers after ± are expanded uncertainties.
Columns and labels:
[1] = Molar enthalpy of transition or fusion; details: Crystal 2; DSC
[2] = Crystal 2; visual observation
[3] = xn = mol fraction of the nth substance listed; details: 100 kPa, Liquid, x2 = 0.334; for mass density: Vibrating tube method; for viscosity: Cone and plate viscometry

C[N+](C)(C)CCO.[Cl-] [choline chloride]
Details | Molar enthalpy of transition or fusion [kcal/mol] | Triple point temperature [K]
[1] | 1.75 ± 0.0717 | –
[2] | – | 351.62 ± 3

NC(N)=O [urea] + C[N+](C)(C)CCO.[Cl-]
[3]
Details | mass density [kg/m3] | viscosity [mPa·s]
293.15 K | 1203 ± 1 | –
293.25 K | – | 2110 ± 210
299.45 K | – | 1286 ± 120
303.15 K | 1197 ± 1 | –
305.85 K | – | 725 ± 64
312.15 K | – | 432 ± 36
313.15 K | 1192 ± 1 | –
318.35 K | – | 265 ± 21
323.15 K | 1186 ± 1 | –
324.55 K | – | 170 ± 13
330.95 K | – | 116 ± 8
333.15 K | 1180 ± 1 | –
337.15 K | – | 83 ± 6
343.15 K | 1175 ± 1 | –
343.35 K | – | 61 ± 4
349.55 K | – | 46 ± 3
353.15 K | 1170 ± 1 | –
355.85 K | – | 36 ± 3
362.05 K | – | 27 ± 2
363.15 K | 1164 ± 1 | –
368.25 K | – | 21 ± 2
